How the values were obtained:
HEK-N/F cells [1] = experiment: Prolongation of life span of a cell; assay type: cell-based, human; details: 3 μg/ml during culture
Method: HEK-N/F cells were obtained from foreskin of a newborn baby after its fibroblasts, another major component of skin, were treated with uridine bromide. Then, the cells were cultured in DMEM medium supplemented with 10 FBS. HEK-N/F cells were diluted consecutively at the ratio of 1:4 during the culture. Before being treated with samples, the cells were grown up to 3 PDL (population doubling level). During the culture, each sample was administered by […]. Medium was replaced every three days by fresh medium supplemented with a culture solution containing the equal concentration of the sample.

[2] = Hydroxyl radical scavenging activity (deoxyribose/TBA, method of Halliwell); assay type: biochemical; details: 10 μg of sample, total volume 1 ml
Method: Hydroxyl radical (HO.) is generated by the reaction of a metal ion or a superoxide radical. Owing to its strong reactivity, hydroxyl radical causes oxidative damages to DNA, protein and lipid in vivo. Nitric oxide (NO.) is reacted with a superoxide radical to generate a peroxy nitrite (ONOO—), also having strong reactivity. […] Particularly, each compound was mixed with 10 μg of a sample dissolved in DMSO, phosphate buffer (20 mM, pH 7.4) 5.6 mM deoxyribose, 0.1 mM FeCl3, 1 mM H2O2 and 0.1 mM ascorbic acid, making total volume 1 ml, which was then reacted at 37° C. for 60 minutes. 250 μl of 20% TCA and 250 μl of 1% TBA solution (dissolved in 50 mM NaOH) were added to the reaction solution, followed by thermal reaction at 95° C. for 5 minutes. After completing the reaction, OD532 was measured. Hydroxyl radical scavenging activity was calculated by the below
<Mathematical Formula 3>. BHA and α-tocopherol were used for a positive control. Hydroxyl Radical Scavenging Activity (%)=(Acontrol−Asample)/(Acontrol−Ablank)×100 <Mathematical Formula 3>
Acontrol: Optical density of control group well (sample was not added),
Asample: Optical density of experimental group well (sample was added),
Ablank: Optical density of well not added with sample, TCA and TBA

rat brain homogenates = experiment: Lipid peroxidation inhibitory activity (Fe2+/ascorbic acid, TBA method); details: Table 4
[3] = Nitric oxide scavenging activity; assay type: biochemical
HEK-N/F cells [4] = experiment: Telomere length / maximum PDL (Southern blot of TRFs); assay type: cell-based, human
Method: In the above Example 8, an extract of […] chinensis and active ingredients separated from the same were confirmed to have an effect of prolongation of life span of a cell. Thus, in this example, relation between the effect of prolongation of life span and the length of a telomere was investigated. Particularly, genomic DNA was extracted from each cell of different ages by using a nucleic acid extraction kit (Isoquick Nucleic Acid Extraction kit, ORCA Research Inc.), which was stored at 4° C. after being dissolved in Tris-EDTA solution (10 mM Tris-HCl, 1 mM EDTA, pH 8.0). 2 μl of 10×H buffer solution (TaKaRa), 2 μl of the extracted genomic DNA solution and distilled water were all mixed in a 1.5 ml tube, making final volume 19 μl. Then, 1 μl at of restriction enzyme […]) was added thereto. […] Then, the gel was immersed in 0.25 N HCl, followed by shaking for 15 minutes. The gel was washed twice with distilled water. This gel was dipped into denaturing solution (0.2 N NaOH, 0.6 M NaCl), followed by shaking for 25 minutes at room temperature. And then, the gel was washed three times with distilled water. On a blotting device filled with 6×SSC, nitrocellulose membrane (Optitran BA-S 85, Schleicher & Schuel), 3 mm filter paper, paper towel, glass plate and weight (2 kg) were loaded in that order, followed by blotting overnight. After the blotting was finished, membrane filter was soaked in 3×SSC, and then water was discarded smoothly. The positions of the wells on the membrane were marked. The membrane was placed between filter papers, followed by baking at 80° C. for overnight. […] After being dried, the membrane was covered with wrap and set in a cassette on which X-ray film (Scientific Imaging Film, Kodak) and intensifying screen were attached. Autoradiography was performed at -80° C. for overnight. Based on the developed film and the location of the membrane, the positions of the wells were marked by a magic pen. The density peak of TRFs was detected by a laser densitometer (UltroScan XL, Pharmacia) and its mobility was calculated.

HEK-N/F cells [5] = experiment: Cell protection from UV irradiation (DNA damage, ethidium homodimer fluorescence); assay type: cell-based, human; details: 35 mJ/cm^2 UVB, Et2 fluorescence (DNA damage)
Method: UV irradiation induces DNA damage and DNA-protein connection by increasing active oxygen in cells. When HEK-N/F cells were irradiated by 35 mJ/cm^2 of UVB, DNA chains in nucleus were cut. After uniting the broken chains to ethidium homodimer (Et2), a DNA chain intercalating fluorescent dye, extent of fluorescence was measured to quantify the amount of DNA damage. Particularly, HEK-N/F cells were cultured on serum-free KGM medium (Clonetics), which were inoculated into wells of a 24-well plate by 0.5−4×10^4 cells/2 cm^2. Then, the cells were cultured for 18 hours, after which a sample was treated thereto for 2 hours. […] The cells exposed on UV were further cultured for 1-7 hours, and then, […] ethidium homodimer (Et2, Millipore) was added. 30 minutes later, fluorescence was measured with Millipore microplate fluorometer Cytofluor 2350 (excitation: 485 nm, emission: 645 nm).

[6] = DPPH radical scavenging activity; assay type: biochemical
Method: In order to extract an effective ingredient having an anti-oxidant activity from Cercis chinensis, an experiment was performed following the procedure represented in a schematic diagram of FIG. 1. Particularly, 1 kg of leaves and stems of Cercis chinensis, dried in shadow, were grinded to powder using a pulverizer, which was extracted by ethanol (EtOH) at room temperature twice at intervals of two weeks. For the extraction, ethanol solutions were prepared by adding ethanol gradually, 10% at a time, from 0% to 100%. The prepared ethanol solutions were used for the extraction. […] But, it looses absorbance when being scavenged. Based on that point, an anti-oxidant activity can be measured using DPPH. […] Then, each solution was distributed into a 96 well plate by 10 μl each, into which 190 μl of DPPH(Sigma, St. Louis, Mo, USA) solution whose ethanol concentration was 2×10^−4 M/ml was added. The plate was just left at room temperature for 30 minutes. Finally, OD517 was measured at 517 nm. For a control, DMSO was added instead of the sample, and changes of optical density were investigated. […] DDPH Radical Scavenging Activity (%)=(Acontrol−Asample)/(Acontrol)×100 <Mathematica Formula 1>
Acontrol: Optical density of control group (sample was not added),
Asample: Optical density of experimental group (sample was added).
In order to identify a fraction having an anti oxidant activity among hexane Fr, EtOAc Fr and BuOH Fr obtained above, a DPPH radical scavenging activity was measured using each extract of each fraction following the method used above. At this time, vitamin E, known to have high DPPH radical scavenging activity, was used as a comparing group.
At this time, BHA (tert-butyl-4 hydroxyanisole) and α-tocopherol, synthetic anti-oxidant agents, were used as positive controls.

## O=c1c(O)c(-c2cc(O)c(O)c(O)c2)oc2cc(O)cc(O)c12 [Chemical Formula 9, myricetin]
HEK-N/F cells [1]
  average life span of a cell: 56 days
  life span, times as long as that of a control: 1.6 times
[2]
  Hydroxyl radical scavenging activity (%): 8.7%
Rat brain homogenates
  Lipid Peroxidation Inhibitory Activity IC50: 0.95 ± 0.06 µg/mL
[3]
  Nitric oxide scavenging activity (in words): comparatively high nitric oxide scavenging activity
HEK-N/F cells [4]
  telomere shortening speed delayed, comparing to control: 1.6 times
HEK-N/F cells [4]; control 14.1
  maximum PDL: 23.1
HEK-N/F cells [5]
  fluorescence lower than that of a control: 54.7%
[6]
  DPPH radical scavenging activity (in words): strong radical scavenging activity
[6]; Table 3
  DPPH radical scavenging activity IC50: 7.3 ± 0.3 µg/mL

Source: patent US7763287B2, “Extract of Cercis chinensis having anti-oxidant activity and anti-aging activity, and cosmetical composition containing the extract for anti-oxidation, skin-aging protection and wrinkle improvement” (Hankook Pharm. Co., Inc., priority 2002, dated 2010)
